From ChEMBL document CHEMBL1629419, “1,3-Diphenyl-1H-pyrazole derivatives as a new series of potent PPARγ partial agonists” (Bioorg Med Chem, 2010) come the findings set out here.

Molecules are shown by their SMILES.

One test deals with T1, Peroxisome proliferator-activated receptor gamma (Homo sapiens, UniProt P37231).
T1 sequence (P37231 whole entry): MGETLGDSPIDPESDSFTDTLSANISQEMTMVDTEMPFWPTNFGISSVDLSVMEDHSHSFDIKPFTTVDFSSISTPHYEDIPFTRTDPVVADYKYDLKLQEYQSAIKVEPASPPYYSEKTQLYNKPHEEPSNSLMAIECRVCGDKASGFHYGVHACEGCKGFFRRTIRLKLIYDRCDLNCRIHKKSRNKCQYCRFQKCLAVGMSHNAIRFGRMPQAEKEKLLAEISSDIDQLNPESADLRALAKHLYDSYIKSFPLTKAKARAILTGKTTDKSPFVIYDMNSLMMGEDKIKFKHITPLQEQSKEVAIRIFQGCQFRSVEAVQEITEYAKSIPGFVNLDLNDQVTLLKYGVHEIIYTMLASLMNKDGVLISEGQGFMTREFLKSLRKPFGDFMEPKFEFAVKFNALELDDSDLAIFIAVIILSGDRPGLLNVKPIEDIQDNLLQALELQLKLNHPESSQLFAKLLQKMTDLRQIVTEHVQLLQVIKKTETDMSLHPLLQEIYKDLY
As to the kind of experiment: Partial agonist activity at human PPARgamma-LBD expressed in HEK293T cells assessed as induction of receptor transactivation after 24 hrs by luciferase reporter gene assay. The class given is functional, cell-based, HEK-293T.
As for `O=C(Oc1ccc([N+](=O)[O-])cc1)c1cn(-c2ccccc2)nc1-c1ccccc1`, the EC50 is 2290 nM.

In another test the target is T1, Peroxisome proliferator-activated receptor gamma. As to the kind of experiment: Displacement of fluormone PPAR-green from N-terminal His-tagged human PPARgamma-LBD after 2 hrs by fluorescence polarization assay.
Molecule `O=C(Oc1ccc([N+](=O)[O-])cc1)c1cn(-c2ccccc2)nc1-c1ccccc1` had a concentration for half-maximal inhibition (IC50) of 973 nM.

A further test deals with T2, Peroxisome proliferator-activated receptor gamma (Homo sapiens) (UniProt P37231).
T2 sequence (whole entry): T1 sequence (P37231 whole entry)
Description: Displacement of fluormone PPAR-green from N-terminal His-tagged human PPARgamma-LBD assessed as logarithm unit binding affinity value at 10 uM after 2 hrs by fluorescence polarization assay.
For `COc1ccc(-c2nn(-c3ccccc3)cc2C(=O)OCC(=O)c2ccccc2Cl)cc1`, the binding affinity was found to be 1.37. In the case of `COc1ccc(-c2nn(-c3ccccc3)cc2C(=O)Oc2ccc(C=O)cc2OC)cc1OC`, the binding affinity turned out to be 1.82. Turning to `CC(C)S(=O)(=O)c1ccc(COC(=O)c2cn(-c3ccccc3)nc2-c2ccccc2)cc1`, the binding affinity was 1.72. With `CC(=O)Nc1ccc(OC(=O)c2cn(-c3ccccc3)nc2-c2ccccc2)cc1`, the binding affinity worked out at 1.58.

For `COc1ccc(-c2nn(-c3ccccc3)cc2C(=O)Oc2ccccc2)cc1`, the binding affinity worked out at 1.45. Still for that read-out and setting: as for `COc1ccc(-c2nn(-c3ccccc3)cc2C(=O)Oc2ccc(C)cc2)cc1OC`, the figure is 1.85; as for `COc1ccc(-c2nn(-c3ccccc3)cc2C(=O)OCC(=O)c2ccc([N+](=O)[O-])cc2)cc1`, 1.57; as for `O=C(N/N=C/c1cn(-c2ccccc2)nc1-c1ccc(F)cc1)C(O)c1ccccc1` (stereo not drawn), 1.68. For the molecule `COc1ccc(-c2nn(-c3ccccc3)cc2C(=O)OCC(=O)c2ccc(Br)cc2)cc1`, the binding affinity amounted to 1.2. `COc1ccc(-c2nn(-c3ccccc3)cc2C(=O)Oc2ccccc2)cc1OC`: the binding affinity stood at 1.64. As for `O=C(OCc1ccc([N+](=O)[O-])cc1)c1cn(-c2ccccc2)nc1-c1ccccc1`, the binding affinity was found to be 1.38. Take `O=C(Oc1ccc([N+](=O)[O-])cc1)c1cn(-c2ccccc2)nc1-c1ccccc1`: the binding affinity came to 1.9. As for `O=C(N/N=C/c1cn(-c2ccccc2)nc1-c1ccccc1)c1ccc([N+](=O)[O-])cc1`, the binding affinity was 1.37. On the same count and under the same terms, the result for `COc1cc(C=O)ccc1OC(=O)c1cn(-c2ccccc2)nc1-c1ccc(Br)cc1` reads 1.73; that for `COc1cc(C=O)ccc1OC(=O)c1cn(-c2ccccc2)nc1-c1ccc([N+](=O)[O-])cc1`, 1.35. On to `COc1cc(C=O)ccc1OC(=O)c1cn(-c2ccccc2)nc1-c1ccc(C)cc1`, for which the binding affinity is 1.81. On to `COc1cc(C=O)ccc1OC(=O)c1cn(-c2ccccc2)nc1-c1ccc(OC)c([N+](=O)[O-])c1`, for which the binding affinity was found to be 1.36. Still for that read-out and setting: as for `O=C(Oc1cccc2cccnc12)c1cn(-c2ccccc2)nc1-c1ccccc1`, the figure is 1.52.

For `COc1cc(C=O)ccc1OC(=O)c1cn(-c2ccccc2)nc1-c1ccc(Cl)cc1`, the binding affinity is 1.81. For `COc1cc(C=O)ccc1OC(=O)c1cn(-c2ccccc2)nc1-c1ccc(C2COCCO2)cc1` (stereo not drawn), the binding affinity was found to be 1.5. On the same count and under the same terms, as for `O=C(COC(=O)c1cn(-c2ccccc2)nc1-c1ccccc1)c1ccc(Cl)c([N+](=O)[O-])c1`, the figure is 1.98; as for `COc1cc(C=O)ccc1OC(=O)c1cn(-c2ccccc2)nc1-c1ccc(F)cc1`, 1.82. As to `S=C(NCc1ccco1)NCc1cn(-c2ccccc2)nc1-c1ccccc1`, the binding affinity worked out at 1.73. Still for that read-out and setting: as for `COc1ccc(-c2nn(-c3ccccc3)cc2C(=O)OCC(=O)c2ccc(Cl)cc2)cc1`, the figure is 1.42; as for `Cc1ccc(-c2nn(-c3ccccc3)cc2C(=O)NCC(=O)c2ccccc2)cc1`, 1.26. Same read-out and setting: the result for `CC(=O)c1ccc(OC(=O)c2cn(-c3ccccc3)nc2-c2ccccc2)cc1` reads 1.38. In the case of `O=C(Oc1ccccc1)c1cn(-c2ccccc2)nc1-c1ccccc1`, the binding affinity stood at 1.63.

Take `Cc1ccc(-c2nn(-c3ccccc3)cc2C(=O)Oc2ccccc2)cc1`: the binding affinity amounted to 1.31. Turning to `COc1cc(C=O)ccc1OC(=O)c1cn(-c2ccccc2)nc1-c1ccccc1`, the binding affinity came to 1.99.

For the molecule `Fc1ccc(-c2nn(-c3ccccc3)cc2CNCc2ccccc2)cc1`, the binding affinity worked out at 1.63. As for `O=C(Oc1ccccc1)c1cn(-c2ccccc2)nc1-c1ccc(F)cc1`, the binding affinity came to 1.55. As to `O=C(Oc1ccccc1)c1cn(-c2ccccc2)nc1-c1cccc([N+](=O)[O-])c1`, the binding affinity amounted to 1.38. Take `O=C(COC(=O)c1cn(-c2ccccc2)nc1-c1ccc(Cl)cc1)c1ccccc1`: the binding affinity was found to be 1.15. On to `O=C(Oc1ccccc1)c1cn(-c2ccccc2)nc1-c1ccc(Br)cc1`, for which the binding affinity worked out at 1.22.

As to `COc1ccc(-c2nn(-c3ccccc3)cc2C(=O)OCC(=O)c2ccc(C)c([N+](=O)[O-])c2)cc1`, the binding affinity was determined as 1.05. In the case of `O=C(Oc1ccccc1)c1cn(-c2ccccc2)nc1-c1ccc(Cl)cc1`, the binding affinity amounted to 1.15.
